Source: patent US4616009A, “Neuroleptic indole-3-carboxamide derivatives” (Yoshitomi Pharmaceutical Industries, Ltd., priority 1983, dated 1986)
Where two headings read alike, the source gives them in different places.

Legend:
apomorphine [1] = assay: Antiapomorphine activity in mice (spontaneous motility, Animex); assay type: in vivo, mice (male dd-strain); conditions: Mus musculus, 60 min before apomorphine hydrochloride 0.5 mg/kg s.c., dose for 50% suppression of spontaneous motility of control group over 20 min
Procedure: Antiapomorphine Activity in Mice
Groups of 5 male dd-strain mice were used. Test compounds were orally or intraperitoneally administered and 60 minutes thereafter, 0.5 mg/kg of apomorphine hydrochloride was subcutaneously administered. Immediately thereafter, spontaneous motility of the mice was measured with the aid of Animex (manufactured by Columbus Company, U.S.A.) for 20 minutes. The procedure was repeated three times with respective groups. The dose of test compounds required for 50% suppression of spontaneous motility of control group was graphically intraporated and determined as ED50 value.

[2] = prior art; cited from earlier work
[3] = antihypertensive activity; conditions: according to studies of the present inventors
[4] = reported in U.S. Pat. No. 3,527,761 / J. Med. Chem. 14, 1054 (1971); cited from earlier work
apomorphine [5] = assay: apomorphine-antagonistic activity (studies of the present inventors); conditions: according to studies of the present inventors
[6] = reported in U.S. Pat. No. 3,527,761 / J. Med. Chem. 14, 1054 (1971); cited from earlier work; remark: listed apart in the source
[7] = Acute toxicity in mice, oral administration; assay type: in vivo; conditions: 500 mg/kg, 5 days observation, male mice
Description: The acute toxicity of the compounds of the present invention was studied in 5 male mice weighing 30 to 45 g.

[8] = reported; cited from earlier work

Row | Compound | ED50 (apomorphine [1]; po) | further results
1 | Cc1[nH]c2ccc(F)cc2c1C(=O)NC1CCN(Cc2ccc(Cl)cc2)CC1 [Example 13, N-[1-(p-Chlorobenzyl)-4-piperidyl]-5-fluoro-2-methylindole-3-carboxamide] | 5.6 mg/kg | –
2 | Cc1c(C(=O)NC2CCN(Cc3ccccc3)CC2)c2cc(F)ccc2n1C [Example 4, N-(1-benzyl-4-piperidyl)-5-fluoro-1,2-dimethylindole-3-carboxamide] | 27 mg/kg | –
3 | CCN1CCCC1CNC(=O)c1c(C)[nH]c2ccccc12 (stereo not shown) [Example 1, N-(1-ethyl-2-pyrrolidinylmethyl)-2-methylindole-3-carboxamide] | 17 mg/kg | –
4 | CCN1CCCC1CNC(=O)c1c(C)[nH]c2ccc(F)cc12 (stereo not shown) [Example 10, N-(1-Ethyl-2-pyrrolidinylmethyl)-5-fluoro-2-methylindole-3-carboxamide] | – | ED50 (apomorphine [1]; ip): 10 mg/kg
5 | Cc1[nH]c2ccc(F)cc2c1C(=O)NC1CCN(Cc2ccccc2)C1 (stereo not shown) [Example 12, N-(1-Benzyl-3-pyrrolidinyl)-5-fluoro-2-methylindole-3-carboxamide] | 5.6 mg/kg | –
6 | O=C(NC1CCN(CCc2c[nH]c3ccccc23)CC1)c1ccccc1 [indoramin, 3-[2-(4-benzamido-1-piperidyl)-ethyl]indole] | – | anticonvulsant activity [2]: anticonvulsant activity; antihypertensive activity [3]: relatively strong; antihistaminic activity [4]: exhibits antihistaminic activity; apomorphine-antagonistic activity (apomorphine [5]): weak; antihypertensive activity [6]: stronger antihypertensive activity
7 | CCN1CCCC1CNC(=O)c1c(C)[nH]c2ccc(Cl)cc12 (stereo not shown) [Example 9, 5-Chloro-N-(1-ethyl-2-pyrrolidinylmethyl)-2-methylindole-3-carboxamide] | 30 mg/kg | –
8 | Cc1[nH]c2ccc(F)cc2c1C(=O)NC1CCN(Cc2cccc(Cl)c2)CC1 [Example 18, N-[1-(m-Chlorobenzyl)-4-piperidyl]-5-fluoro-2-methylindole-3-carboxamide] | 24 mg/kg | –
9 | Cc1[nH]c2ccc(F)cc2c1C(=O)NC1CCN(Cc2ccccc2)CC1 [Example 2, N-(1-benzyl-4-piperidyl)-5-fluoro-2-methylindole-3-carboxamide] | 4.6 mg/kg | mortality (acute toxicity) [7]: All animals were survived
10 | Cc1[nH]c2ccc(F)cc2c1C(=O)NC1CCN(Cc2ccc(F)cc2)CC1 [Example 14, 5-Fluoro-N-[1-(p-fluorobenzyl)-4-piperidyl]-2-methylindole-3-carboxamide] | 5.2 mg/kg | –
11 | O=C(NC1CCN(Cc2ccccc2)CC1)c1c[nH]c2ccccc12 [Example 8, N-(1-Benzyl-4-piperidyl)indole-3-carboxamide] | 7 mg/kg | –
12 | O=C(NC1CCN(CCc2c[nH]c3ccccc23)CC1)c1c[nH]c2ccccc12 [3-{2-[4-(3-indolecarboxamido)-piperidino]ethyl}indole] | – | antihistaminic activity [4]: antihistaminic activities; antihypertensive activity [6]: having antihypertensive
13 | O=C(NC1CCN(Cc2ccccc2)CC1)c1c[nH]c2ccc(F)cc12 [Example 3, N-(1-benzyl-4-piperidyl)-5-fluoroindole-3-carboxamide] | 9.5 mg/kg | –
14 | Cc1[nH]c2ccccc2c1C(=O)NC1CCN(Cc2ccccc2)CC1 [Example 7, N-(1-benzyl-4-piperidyl)-2-methylindole-3-carboxamide] | 8.7 mg/kg | –
15 | CCN1CCCC1CNC(=O)c1cc(S(N)(=O)=O)ccc1OC (stereo not shown) [Sulpiride, reference compound] | 330 mg/kg | bioavailability in oral administration [8]: low bioavailability
